Laboratory results published in patent US11685901B2, “Compositions and methods for organoid generation and disease modeling” (Salk Institute for Biological Studies, priority 2016, dated 2023).

System: hiPSC-derived hepatocytes
Test: Lipid accumulation and insulin resistance in hiPSC-derived hepatocytes / human mini liver
Type: cell-based
Conditions: overnight culture
Source text: FIGS. 6A-6H are schematics and images showing generation of functional human mini-organs in a dish. FIG. 6A is a schematic showing generation of functional human mini organs including human islets, pancreas, liver, heart, and intestine. FIGS. 6B-6C show the generation of a human heart organoid. FIG. 6B (top) provides a schematic illustrating the protocol for differentiation of a human pluripotent stem cell (hPSC) into a cardiomyocyte (when cultured in 2D) or into a mini heart (when co-cultured with hADSCs and HUVECs in 3D). FIG. 6B (bottom left) provides a plot showing relative expression of cardiomyocyte-specific genes human MLC2a (hMLC2a), human Nkx2-5 (hNkx2-5), alpha myosin heavy chain (alphaMHC), and KCNQ1 before (day 0) and at day 18 of the differentiation protocol, with and without the PPARδ agonist GW501516. At the bottom right of FIG. 6B is a videomicrograph showing beating of the hiPSC-derived cardiomyocytes. […] FIGS. 6D-6F show generation of a human liver organoid. FIG. 6D (top) provides a schematic illustrating the protocol for differentiation of a human pluripotent stem cell (hPSC) into hepatocytes. FIG. 6D (bottom left) provides a plot showing relative expression of hepatocyte-specific genes AFP, ALB, and Cyp3a7, during the differentiation of 6 independent preparations. At the bottom right of FIG. 6D is a micrograph showing hiPSC-derived hepatocytes. […]

- lipid droplets in hiPSC-derived hepatocytes: accumulation of lipid droplets
Substance: phosphatidic acid
